Drawing on patent US8461328B2, “Tricyclic heterocyclic compounds, compositions and methods of use thereof” (Genentech, Inc., priority 2010, dated 2013), this text covers Ki for 24 molecules.

Holding throughout (format): biochemical
One test has as its target T1, JAK3 (Homo sapiens, UniProt P52333).
T1 construct: made in house; host or cells: SF9 insect cells (baculovirus)
The experiment in a line: JAK3 inhibition (Table 4). The note with it: read-out: JAK3 Ki.

In the next test the target is T2, JAK1 (Homo sapiens, UniProt P23458).
T2 construct: made in house; host or cells: SF9 insect cells (baculovirus)
The experiment in a line: JAK1 inhibition (Table 4). The note with it: read-out: JAK1 Ki.

In the next test the target is T3, TYK2 (Homo sapiens, UniProt P29597).
T3 construct: made in house; host or cells: SF9 insect cells (baculovirus)
T3 sequence (P29597 873-1187): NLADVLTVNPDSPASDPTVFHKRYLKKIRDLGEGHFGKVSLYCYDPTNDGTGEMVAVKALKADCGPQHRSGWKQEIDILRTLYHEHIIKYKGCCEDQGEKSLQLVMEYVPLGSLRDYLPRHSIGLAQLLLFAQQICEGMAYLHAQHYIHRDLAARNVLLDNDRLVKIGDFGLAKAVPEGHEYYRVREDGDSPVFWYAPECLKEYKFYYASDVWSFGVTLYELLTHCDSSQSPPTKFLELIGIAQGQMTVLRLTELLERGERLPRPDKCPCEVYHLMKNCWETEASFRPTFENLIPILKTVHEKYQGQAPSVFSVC
Kind of test: TYK2 inhibition (Table 4).

A further test deals with T4, JAK2 (Homo sapiens, UniProt O60674).
T4 construct: made in house; host or cells: SF9 insect cells (baculovirus)
The experiment in a line: JAK2 inhibition (Table 4). The note with it: read-out: JAK2 Ki.

T2 sequence (P23458 852-1154): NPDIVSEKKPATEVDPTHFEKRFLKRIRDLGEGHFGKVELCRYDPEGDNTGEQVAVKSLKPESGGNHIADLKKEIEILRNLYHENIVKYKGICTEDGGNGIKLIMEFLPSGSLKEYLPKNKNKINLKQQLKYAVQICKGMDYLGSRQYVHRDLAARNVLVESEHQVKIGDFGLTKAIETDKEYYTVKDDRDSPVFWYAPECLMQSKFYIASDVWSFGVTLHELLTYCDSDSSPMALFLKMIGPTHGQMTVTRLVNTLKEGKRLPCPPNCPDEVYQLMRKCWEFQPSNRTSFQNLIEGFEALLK
T1 sequence (P52333 783-1124): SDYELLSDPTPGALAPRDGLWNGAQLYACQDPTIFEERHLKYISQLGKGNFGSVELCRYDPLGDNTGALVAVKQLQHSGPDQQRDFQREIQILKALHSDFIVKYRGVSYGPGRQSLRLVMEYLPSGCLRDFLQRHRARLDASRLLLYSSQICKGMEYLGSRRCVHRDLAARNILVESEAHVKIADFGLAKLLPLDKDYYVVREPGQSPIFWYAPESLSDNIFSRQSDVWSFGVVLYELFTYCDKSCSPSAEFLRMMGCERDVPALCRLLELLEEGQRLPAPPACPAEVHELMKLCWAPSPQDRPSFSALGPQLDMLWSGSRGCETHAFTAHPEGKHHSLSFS
T4 sequence (O60674 812-1132): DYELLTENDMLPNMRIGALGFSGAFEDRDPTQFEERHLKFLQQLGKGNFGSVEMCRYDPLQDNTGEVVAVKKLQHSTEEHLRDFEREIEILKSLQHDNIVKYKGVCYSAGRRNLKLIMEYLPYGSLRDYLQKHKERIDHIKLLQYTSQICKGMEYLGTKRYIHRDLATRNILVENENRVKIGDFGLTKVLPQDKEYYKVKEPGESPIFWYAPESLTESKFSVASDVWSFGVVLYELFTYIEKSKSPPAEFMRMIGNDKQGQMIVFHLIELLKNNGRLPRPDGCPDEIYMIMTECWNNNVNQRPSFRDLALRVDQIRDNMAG

Usually Ki stands for a dissociation constant, usually derived from enzyme kinetics or from competition with a known ligand. Regarding `c1cc2c(ncc3ncn(C4CCN(C5CCOCC5)CC4)c32)[nH]1` [Example 85, 1-[-(Tetrahydro-pyran-4-yl)-piperidin-4-yl]-1,6-dihydro-1,3,5,6-tetraaza-as-indacene], the inhibition constant (Ki) at JAK3 stood at 0.716 µM; at JAK1 it was 0.0322 µM; at TYK2 it was 0.153 µM; at JAK2, 0.0643 µM.

With `Cc1nc2cnc3[nH]ccc3c2n1C1CCN(S(C)(=O)=O)CC1` [Example 86, 1-(1-Methanesulfonyl-piperidin-4-yl)-2-methyl-1,6-dihydro-1,3,5,6-tetraaza-as-indacene], the inhibitory constant (Ki) on JAK3 came out at 0.0716 µM; at JAK1, 0.00753 µM; on TYK2, 0.0486 µM; on JAK2, 0.0178 µM.

As to `O=S(=O)(c1cccnc1)N1CCC(n2cnc3cnc4[nH]ccc4c32)CC1` [Example 88, 1-[1-(Pyridine-3-sulfonyl)-piperidin-4-yl]-1,6-dihydro-1,3,5,6-tetraaza-as-indacene], the Ki came to 0.407 µM at JAK3, 0.00898 µM on JAK1, 0.0659 µM at TYK2 and 0.0106 µM at JAK2.

Turning to `O=S(=O)(N1CCC(n2cnc3cnc4[nH]ccc4c32)CC1)C(F)(F)F` [Example 89, 1-(1-Trifluoromethanesulfonyl-piperidin-4-yl)-1,6-dihydro-1,3,5,6-tetraaza-as-indacene], the Ki at JAK3 stood at 0.283 µM; at JAK1, 0.0108 µM; at TYK2, 0.0983 µM; on JAK2, 0.0128 µM.

`c1cc2c(ncc3ncn(C4CCN(Cc5cocn5)CC4)c32)[nH]1` [Example 90, 1-(1-Oxazol-4-ylmethyl-piperidin-4-yl)-1,6-dihydro-1,3,5,6-tetraaza-as-indacene]: the inhibitory constant (Ki) at JAK3 worked out at 0.0469 µM; on JAK1, 0.00681 µM; on TYK2, 0.0631 µM; on JAK2, 0.00875 µM.

For `CS(=O)(=O)c1cccc(CN2CCC(n3cnc4cnc5[nH]ccc5c43)CC2)c1` [Example 91, 1-[1-(3-Methanesulfonyl-benzyl)-piperidin-4-yl]-1,6-dihydro-1,3,5,6-tetraaza-as-indacene], the Ki is 0.0821 µM at JAK3, 0.00064 µM at JAK1, 0.142 µM at TYK2 and 0.00331 µM on JAK2.

Turning to `c1cnc(CN2CCC(n3cnc4cnc5[nH]ccc5c43)CC2)cn1` [Example 92, 1-(1-Pyrazin-2-ylmethyl-piperidin-4-yl)-1,6-dihydro-1,3,5,6-tetraaza-as-indacene], the Ki at JAK3 was 0.0256 µM; on JAK1 it was 0.00364 µM; at TYK2, 0.109 µM; on JAK2, 0.00615 µM.

For `c1cc2c(ncc3ncn([C@@H]4C[C@H]5CC[C@@H](C4)N5)c32)[nH]1` [Example 93, (1S,3S,5R)-1-(8-aza-bicyclo[3.2.1]oct-3-yl)-1,6-dihydro-1,3,5,6-tetraaza-as-indacene], the Ki on JAK3 is 1 µM; at JAK1, 0.0296 µM; on TYK2, 0.323 µM; on JAK2 it was 0.102 µM.

With `N#Cc1cccc(N2CCC(n3cnc4cnc5[nH]ccc5c43)CC2)n1` [Example 94, 4-(6H-1,3,5,6-Tetraaza-as-indacen-1-yl)-3,4,5,6-tetrahydro-2H-[1,2′]bipyridinyl-6′-carbonitrile], the Ki on JAK3 stood at 0.00769 µM; on JAK1 it was 0.00073 µM; on TYK2, 0.021 µM; at JAK2 it was 0.00282 µM.

Take `N#Cc1ccc(N2CCC(n3cnc4cnc5[nH]ccc5c43)CC2)nc1` [Example 95, 4-(6H-1,3,5,6-Tetraaza-as-indacen-1-yl)-3,4,5,6-tetrahydro-2H-[1,2′]bipyridinyl-5′-carbonitrile]: the inhibitory constant (Ki) was determined as 0.161 µM at JAK3, 0.0122 µM on JAK1, 0.102 µM on TYK2 and 0.0354 µM at JAK2.

With `CS(=O)(=O)N1[C@@H]2CC[C@H]1C[C@H](n1cnc3cnc4[nH]ccc4c31)C2` [Example 97, 1-((1S,3S,5R)-8-Methanesulfonyl-8-aza-bicyclo[3.2.1]oct-3-yl)-1,6-dihydro-1,3,5,6-tetraaza-as-indacene], the Ki came out at 0.0296 µM at JAK3, 0.00351 µM on JAK1, 0.0198 µM on TYK2 and 0.00232 µM on JAK2.

For the molecule `N#CCCN1[C@@H]2CC[C@H]1C[C@H](n1cnc3cnc4[nH]ccc4c31)C2` [Example 98, 3-[(1S,3S,5R)-3-(6H-1,3,5,6-Tetraaza-as-indacen-1-yl)-8-aza-bicyclo[3.2.1]oct-8-yl]propionitrile], the inhibition constant (Ki) at JAK3 was determined as 0.0118 µM; at JAK1, 0.00204 µM; at TYK2, 0.00864 µM; on JAK2, 0.00163 µM.

Turning to `O=C(Cc1nc2cnc3[nH]ccc3c2n1C1CCN(Cc2ccccc2)CC1)NC1CCCC1` [Example 99, 2-[1-(1-Benzyl-piperidin-4-yl)-1,6-dihydro-1,3,5,6-tetraaza-as-indacen-2-yl]-N-cyclopentyl-acetamide], the Ki on JAK3 was 0.0108 µM; on JAK1, 0.00429 µM; at TYK2 it was 0.586 µM; on JAK2, 0.0164 µM.

With `O=C(Cc1nc2cnc3[nH]ccc3c2n1C1CCN(Cc2ccccc2)CC1)N1CCCC1` [Example 100, 2-[1-(1-Benzyl-piperidin-4-yl)-1,6-dihydro-1,3,5,6-tetraaza-as-indacen-2-yl]-1-pyrrolidin-1-yl-ethanone], the Ki at JAK3 was found to be 0.0169 µM; at JAK1, 0.0221 µM; on TYK2 it was 2.1 µM; on JAK2 it was 0.0992 µM.

On to `CN(C(=O)Cc1nc2cnc3[nH]ccc3c2n1C1CCN(Cc2ccccc2)CC1)C1CCCC1` [Example 101, 2-[1-(1-Benzyl-piperidin-4-yl)-1,6-dihydro-1,3,5,6-tetraaza-as-indacen-2-yl]-N-cyclopentyl-N-methyl-acetamide], for which the Ki on JAK3 is 0.0277 µM; on JAK1 it was 0.041 µM; at TYK2, 3.23 µM; on JAK2, 0.194 µM.

For `O=C(Cc1nc2cnc3[nH]ccc3c2n1C1CCN(Cc2ccccc2)CC1)N1CCS(=O)(=O)CC1` [Example 102, 2-[1-(1-Benzyl-piperidin-4-yl)-1,6-dihydro-1,3,5,6-tetraaza-as-indacen-2-yl]-1-(1,1-dioxo-1λ*6*thiomorpholin-4-yl)ethanone], the Ki at JAK3 stood at 0.0097 µM; at JAK1 it was 0.00578 µM; at TYK2, 0.442 µM; at JAK2, 0.0514 µM.

For the molecule `CC(C)NC(=O)Cc1nc2cnc3[nH]ccc3c2n1C1CCN(Cc2ccccc2)CC1` [Example 103, 2-[1-(1-Benzyl-piperidin-4-yl)-1,6-dihydro-1,3,5,6-tetraaza-as-indacen-2-yl]-N-isopropylacetamide], the inhibition constant (Ki) worked out at 0.0116 µM at JAK3, 0.00509 µM at JAK1, 0.673 µM at TYK2 and 0.0173 µM at JAK2.

Regarding `c1cc2c(ncc3ncn(C4CCN(Cc5cncs5)CC4)c32)[nH]1` [Example 104, 1-(1-Thiazol-5-ylmethyl-piperidin-4-yl)-1,6-dihydro-1,3,5,6-tetraaza-as-indacene], the Ki on JAK3 worked out at 0.0115 µM; on JAK1, 0.0009 µM; on TYK2, 0.0209 µM; on JAK2, 0.00169 µM.

For `CC(=O)N[C@H]1CC[C@H](n2cnc3cnc4[nH]ccc4c32)CC1` [Example 106, Trans N-[4-(6H-1,3,5,6-tetraaza-as-indacen-1-yl)-cyclohexyl]acetamide], the Ki at JAK3 was determined as 0.0437 µM; on JAK1 it was 0.0055 µM; on TYK2, 0.0356 µM; on JAK2, 0.0108 µM.

As for `Cc1nc2cnc3[nH]ccc3c2n1C1CCC(F)(F)CC1` [Example 114, 1-(4,4-Difluoro-cyclohexyl)-2-methyl-1,6-dihydro-1,2,3,5,6-tetraaza-as-indacene], the Ki on JAK3 was found to be 0.017 µM; at JAK1, 0.00974 µM; on TYK2 it was 0.0167 µM; on JAK2 it was 0.0287 µM.

Regarding `CS(=O)(=O)N1CCC(n2c(CC3CCCC3)nc3cnc4[nH]ccc4c32)CC1` [Example 115, 2-Cyclopentylmethyl-1-(1-methanesulfonyl-piperidin-4-yl)-1,6-dihydro-1,2,3,5,6-tetraaza-as-indacene], the inhibition constant (Ki) is 0.547 µM at JAK3, 0.32 µM on JAK1, 0.153 µM on TYK2 and 0.744 µM at JAK2.

Take `N#CCCN1CCC(n2c(CC3CCCC3)nc3cnc4[nH]ccc4c32)CC1` [Example 116, 3-[4-(2-Cyclopentylmethyl-6H-1,2,3,5,6-tetraaza-as-indacen-1-yl)-piperidin-1-yl]-propionitrile]: the inhibition constant Ki on JAK3 is 0.058 µM; on JAK1, 0.0197 µM; on TYK2 it was 0.322 µM; at JAK2 it was 0.0769 µM.

Take `CCCS(=O)(=O)N1CCC(n2c(CC(N)=O)nc3cnc4[nH]ccc4c32)CC1` [Example 117, 2-{1-[1-(Propane-1-sulfonyl)-piperidin-4-yl]-1,6-dihydro-1,2,3,5,6-tetraaza-as-indacen-2-yl}-acetamide]: the Ki on JAK3 was 0.746 µM; on JAK1, 0.131 µM; on TYK2 it was 1.53 µM; at JAK2, 0.781 µM.

On to `CS(=O)(=O)NCCc1nc2cnc3[nH]ccc3c2n1C1CCN(CCC#N)CC1` [Example 118, N-(2-{1-[1-(2-Cyano-ethyl)-piperidin-4-yl]-1,6-dihydro-1,2,3,5,6-tetraaza-as-indacen-2-yl}-ethyl)-methanesulfonamide], for which the Ki at JAK3 amounted to 0.0236 µM; at JAK1 it was 0.00194 µM; on TYK2, 0.0631 µM; at JAK2, 0.012 µM.
